From patent publication US20050060764A1, “Mouse model for bone metabolism” (priority 2003, published 2005)
Strand notation (5' to 3'): a small letter for the sugar, then the base; units joined by * are phosphorothioate-linked, units joined directly phosphodiester-linked; [ ] holds rarer units or linkages, { } end groups; capitals alone tell only the bases. e = 2'-O-(2-methoxyethyl) (MOE); [5mC] = 5-methylcytosine; d = 2'-deoxy (DNA)

B1: PTH alone (peptide, UniProt P01270 32-115, looked up)
Parathyroid hormone: SVSEIQLMHNLGKHLNSMERVEWLRKKLQDVHNFVALGAPLAPRDAGSQRPRKKEDNVLVESHEKSLGEADKADVNVLTKAKSQ

Tests used:
mouse RANKL mRNA [1] = assay: Antisense inhibition of mouse RANKL mRNA in C2C12 cells: dose response (Table 5); type: cell-based; settings: relative to untreated control
Method: (§1) Cells were seeded into 24-well plates (Falcon-353047 at a density of ˜10,000 cells/cm^2 for use in antisense oligonucleotide transfection.
(§2) Cells are treated and data are obtained in triplicate. […] Cells were harvested 16-24 hours after oligonucleotide treatment.
(§3) Probes and primers to mouse RANKL were designed to hybridize to a mouse RANKL sequence, using published sequence information (GenBank accession number AF013170.1, incorporated herein as SEQ ID NO:ll). For mouse RANKL the PCR primers were: • forward primer: […] (SEQ ID NO:12) • reverse primer: […] (SEQ ID NO: 13) and • the PCR probe was: FAM-[…]-TAMRA (SEQ ID NO: 14) where FAM is the fluorescent reporter dye and TAMRA is the quencher dye. For mouse GAPDH the PCR primers were: • forward primer: […](SEQ ID NO:15) • reverse primer: […](SEQ ID NO:16) and the • PCR probe was: 5′ JOE-[…]-TAMRA 3′ (SEQ ID NO: 17) where JOE is the fluorescent reporter dye and TAMRA is the quencher dye.
In accordance with the present invention, a subset of the antisense oligonucleotides in Example 16 was further investigated in dose-response studies. The oligonucleotides used in this investigation were ISIS 180812 (SEQ ID NO: 178), ISIS 180814 (SEQ ID NO: 180), ISIS 180819 (SEQ ID NO: 185), ISIS 180828 (SEQ ID NO: 194) and the control oligonucleotide ISIS 101757 ([…], SEQ ID NO: 355). […] All cytidine residues are 5-methylcytidines.
C2C12 cells were treated with the oligonucleotides at 10, 50, 75, 100, and 150 nM as described in other examples herein. […] The results are expressed as percent inhibition relative to the untreated control. The data, shown in Table 5, are averages from two experiments and illustrate the oligonucleotides of the present invention are able to downregulate RANKL mRNA expression in a dose-dependent manner.

mouse RANKL mRNA [2] = assay: Antisense inhibition of mouse RANKL mRNA levels in C2C12 cells, quantitative real-time PCR (Table 2); type: cell-based; design: concentration or dose not given beside the values; settings: averages from three experiments
Method: as §1, §2
PCR reagents were obtained from Invitrogen Corporation, (Carlsbad, Calif.).
as §3
In accordance with the present invention, a second series of antisense compounds was designed to target different regions of the mouse RANKL RNA, using published sequences (GenBank accession number AF013170.1, incorporated herein as SEQ ID NO: 11). […] All cytidine residues are 5-methylcytidines. […] If present “N.D.” indicates “no data”.

[3] = Serum calcium concentration 24 hours after PTH infusion in mice treated with RANKL antisense oligonucleotides (Table 10); type: in vivo, mouse; settings: mice
Method: In accordance with the present invention, the effect of antisense oligonucleotide inhibition on PTH-induced serum calcium concentration increase was measured in mice. The serum calcium concentration in mice was measured as a function of antisense oligonucleotide dose. Calcitonin, a known bone antiresorptive agent, was used as a control for antiresorptive activity.
Female Swiss-Webster (5-8 wks old) mice fed a low-calcium diet were dosed subcutaneously for two weeks with either the oligonucleotides ISIS 180819 (SEQ ID NO: 185) or 180814 (SEQ ID NO: 180) at concentrations of 5 mg/kg, 15 mg/kg, 30 mg/kg, or 40 mg/kg. A control group of mice were treated with calcitonin (400 ng) plus PTH (1 ug/100 g/6 hr), PTH alone (1 ug/100 g/6 hr) or saline. Treatment with oligonucleotides was followed with infusion of PTH by subcutaneously implanted mini-pumps at a dose of 1 ug/100 g/6 hr. After 24 hours of PTH infusion (total PTH delivery of 4 ug/100 g), the mice were sacrificed and the serum calcium concentration was measured with the Sigma Diagnostics Calcium Kit (Sigma-Aldrich). The data, summarized in Table 10 are averages from eight mice. Percent mRNA inhibition is normalized to PTH alone treatment.

RANK mRNA = assay: Antisense inhibition of RANK mRNA expression in proximal tibia after PTH infusion in mice: specificity and dose response (Table 15); type: in vivo, mouse; settings: for RANK mRNA % inhibition (normalized to PTH): then 24 h PTH, proximal tibia
Method: (§4) In accordance with the present invention, the specificity of RANK inhibition by a RANK antisense oligonucleotide was compared to that of an 8-base pair mismatch oligonucleotide.
(§5) ISIS 181080 ([…], SEQ ID NO: 357) is an antisense oligonucleotide targeted to mouse RANK. ISIS 208565 ([…], SEQ ID NO: 358) is an 8-base pair mismatch oligonucleotide. […] All cytidine residues are 5-methylcytidines.
(§6) Female Swiss-Webster mice (5-8 wks old) fed a low-calcium diet were treated for two weeks with either ISIS 181080 or ISIS 208565. The dose of oligonucleotide was either 40 mg/kg, 30 mg/kg, 20 mg/kg, or 10 mg/kg. After the 2-week treatment with oligonucleotides, the mice were infused with PTH by subcutaneously implanted mini-pumps at a dose of 4 ug/100 g over 24 hours. A group of control mice were dosed with either saline, PTH alone (1 ug/100 g/6 hr) or calcitonin (400 ng) plus PTH (1 ug/100 g/6 hr). After 24 hours of PTH infusion (total PTH delivery of 4 ug/100 g), the mice were sacrificed and measurements were made of serum calcium with the Sigma Diagnostics Calcium Kit (Sigma-Aldrich) and RANK mRNA expression in proximal tibia (as described in other examples herein). The results shown in Table 15 are the average from four mice per group. Percent inhibition of RANK mRNA is normalized to PTH treatment alone. […] The data also illustrate that these effects are occurring due to an antisense mechanism.

[4] = Serum calcium concentration after PTH infusion in mice: specificity and dose response of RANK antisense oligonucleotide (Table 15); type: in vivo, mouse; settings: for serum calcium: then 24 h PTH
Method: as §4, §5, §6

rat RANKL mRNA = assay: Antisense inhibition of rat RANKL mRNA levels in UMR-106 cells, quantitative real-time PCR (Table 3); type: cell-based; design: concentration or dose not given beside the values; settings: averages from three experiments
Procedure, shortened: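 UMR-106 cells transfected with antisense oligonucleotides (5-methylcytidine throughout) in triplicate, harvested 16-24 h after treatment. RANKL mRNA quantified by real-time RT-PCR with a FAM/TAMRA probe, using rat GAPDH (JOE/TAMRA probe) as the reference.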

[5] = Serum calcium after RANK antisense oligonucleotide treatment and PTH infusion: time course (Table 13); type: in vivo, mouse; settings: control mice, no oligonucleotide; PTH 1 ug/100 g/6 hr 24 h, calcitonin (400 ug)
Method: In accordance with the present invention, ISIS 181071 was administered to mice for different time periods to evaluate its ability to inhibit RANK expression and PTH-induced serum calcium concentration increase as a function of oligonucleotide treatment time.
Female Swiss-Webster mice (5-8 wks old) were fed a low-calcium diet and received daily subcutaneous injections of 30 mg/kg of ISIS 181071 (SEQ ID NO: 356) for 2, 3, 5, 7, 10, 14, or 21 days. At the end of the oligonucleotide treatment period, mice were infused with PTH by subcutaneously implanted mini-pumps at a dose of 1 ug/100 g/6 hr. A group of control mice were dosed with either saline, PTH alone (1 ug/100 g/6 hr) or calcitonin (400 ug) plus PTH (1 ug/100 g/6 hr). Following 24 hours of PTH infusion (total PTH delivery of 4ug/100 g), the mice were sacrificed and measurements were made of serum calcium with the Sigma Diagnostics Calcium Kit (Sigma-Aldrich) and RANK mRNA expression in the proximal tibia (as described in other examples herein). Percent RANK mRNA inhibition is normalized to PTH alone treatment.

[6] = mice, two weeks 10, 20, 30 or 40 mg/kg, 24 hours PTH infusion

Row | Molecule | % Inhibition of RANKL mRNA (mouse RANKL mRNA [1]; 10 nM oligonucleotide) [%] | % Inhibition of RANKL mRNA (mouse RANKL mRNA [1]; 50 nM oligonucleotide) [%] | % Inhibition of RANKL mRNA (mouse RANKL mRNA [1]; 75 nM oligonucleotide) [%] | % Inhibition of RANKL mRNA (mouse RANKL mRNA [1]; 100 nM oligonucleotide) [%] | % Inhibition of RANKL mRNA (mouse RANKL mRNA [1]; 150 nM oligonucleotide) [%] | % INHIB (inhibition of mouse RANKL mRNA levels) (mouse RANKL mRNA [2]) | % INHIB (inhibition of rat RANKL mRNA levels) (rat RANKL mRNA) | other results
1 | 180812 (antisense eT*e[5mC]*e[5mC]*eG*eG*dA*dT*d[5mC]*d[5mC]*dA*dG*d[5mC]*dA*dG*dG*eG*eA*eA*eG*eG) [compound 180812] | 0 | 5 | 13 | 20 | 45 | 47% | – | –
2 | 180814 (antisense eG*eT*e[5mC]*eT*eT*dA*d[5mC]*dA*d[5mC]*dA*dT*dG*dT*dA*dT*eA*eG*eA*e[5mC]*eA) [compound 180814] | 12 | 14 | 61 | 70 | 81 | 66% | – | PTH-induced increase in serum calcium concentration ([3]; s.c. two weeks 5, 15, 30 or 40 mg/kg, 24 hours PTH infusion): lessen the PTH-induced increase in serum calcium concentration
3 | 180828 (antisense eT*eT*eT*eA*eT*dT*dT*dT*dG*d[5mC]*dT*dT*dG*d[5mC]*dA*eT*eA*eG*eT*eT) [compound 180828] | 31 | 43 | 23 | 31 | 40 | 44% | – | –
4 | GAGCTCCCGGACCCTGAGGC (listed as DNA, chemistry not given here) [ISIS 181080, antisense oligonucleotide targeted to mouse RANK] | – | – | – | – | – | – | – | RANK mRNA % inhibition (normalized to PTH) (RANK mRNA; 10 mg/kg two weeks): 47%; RANK mRNA % inhibition (normalized to PTH) (RANK mRNA; 20 mg/kg two weeks): 38%; RANK mRNA % inhibition (normalized to PTH) (RANK mRNA; 30 mg/kg two weeks): 48%; RANK mRNA % inhibition (normalized to PTH) (RANK mRNA; 40 mg/kg two weeks): 65%; expression of RANK mRNA in proximal tibia (RANK mRNA; [6]): inhibits expression of RANK mRNA in vivo; serum calcium ([4]; 10 mg/kg two weeks): 23 mg/dL; serum calcium ([4]; 20 mg/kg two weeks): 17 mg/dL; serum calcium ([4]; 30 mg/kg two weeks): 15 mg/dL; serum calcium ([4]; 40 mg/kg two weeks): 16 mg/dL; PTH-induced rise in serum calcium concentration [4, 6]: lessens the PTH-induced rise in serum calcium concentration
5 | calcitonin [reference compound] | – | – | – | – | – | – | – | inhibition of PTH-induced serum calcium concentration ([3]; PTH infusion, n=8): 66 % inhibition
6 | agcaaatgttggcgtacagg (antisense eA*eG*e[5mC]*eA*eA*dA*dT*dG*dT*dT*dG*dG*d[5mC]*dG*dT*eA*e[5mC]*eA*eG*eG) [ISIS 180807, 2′-MOE gapmer targeted to mouse and rat RANKL] | – | – | – | – | – | at least 40% | at least 40% | –
7 | gctcgaaagtacaggaacag (antisense eG*e[5mC]*eT*e[5mC]*eG*dA*dA*dA*dG*dT*dA*d[5mC]*dA*dG*dG*eA*eA*e[5mC]*eA*eG) [ISIS 180802, 2′-MOE gapmer targeted to mouse and rat RANKL] | – | – | – | – | – | at least 40% | at least 40% | –
8 | 180802 (antisense eG*e[5mC]*eT*e[5mC]*eG*dA*dA*dA*dG*dT*dA*d[5mC]*dA*dG*dG*eA*eA*e[5mC]*eA*eG) [compound 180802] | – | – | – | – | – | 79% | 40% | –
9 | 101757 (antisense eA*eG*eG*eT*eG*d[5mC]*dT*d[5mC]*dA*dG*dG*dA*d[5mC]*dT*d[5mC]*e[5mC]*eA*eT*eT*eT) [compound 101757] | – | 17 | – | 13 | – | – | – | –
10 | B1 | – | – | – | – | – | – | – | Serum calcium concentration [5]: 21 mg/dL
